Values after ≈ are worked out from the molar mass of the structure shown.
Legend:
Assay type in all cases: functional
Escherichia coli [1] = experiment: Antibacterial activity against Escherichia coli assessed as bacterial growth inhibition by CLSI based broth microdilution method
Staphylococcus aureus [2] = experiment: Antibacterial activity against Staphylococcus aureus assessed as bacterial growth inhibition by CLSI based broth microdilution method
Pseudomonas aeruginosa [3] = experiment: Antibacterial activity against Pseudomonas aeruginosa assessed as bacterial growth inhibition by CLSI based broth microdilution method
Staphylococcus aureus [4] = experiment: Potency index, ratio of Azithromycin MIC to test compound MIC for antibacterial activity against erythromycin-susceptible Staphylococcus aureus ATCC 25923 assessed as bacterial growth inhibition by standard dilution assay
Staphylococcus aureus [5] = experiment: Antibacterial activity against penicillin-resistant Staphylococcus aureus ATCC 31007 assessed as bacterial growth inhibition by standard dilution assay
Klebsiella pneumoniae [6] = experiment: Antibacterial activity against erythromycin-resistant Klebsiella pneumoniae ATCC 700603 assessed as bacterial growth inhibition by standard dilution assay
Staphylococcus aureus [7] = experiment: Antibacterial activity against methicillin-resistant Staphylococcus aureus ATCC 43300 assessed as bacterial growth inhibition by standard dilution assay
Staphylococcus aureus [8] = experiment: Potency index, ratio of Clarithromycin MIC to test compound MIC for antibacterial activity against erythromycin-susceptible Staphylococcus aureus ATCC 25923 assessed as bacterial growth inhibition by standard dilution assay
Staphylococcus aureus [9] = experiment: Antibacterial activity against erythromycin-resistant Staphylococcus aureus clinical isolate assessed as bacterial growth inhibition by standard dilution assay
Staphylococcus aureus [10] = experiment: Antibacterial activity against erythromycin-susceptible Staphylococcus aureus ATCC 25923 assessed as bacterial growth inhibition by standard dilution assay
Escherichia coli [11] = experiment: Antibacterial activity against Escherichia coli clinical isolate assessed as bacterial growth inhibition incubated for 24 hrs by disk diffusion method
Staphylococcus aureus [12] = experiment: Antibacterial activity against Staphylococcus aureus clinical isolate assessed as bacterial growth inhibition incubated for 24 hrs by disk diffusion method
Staphylococcus aureus [13] = experiment: Antibacterial activity against Staphylococcus aureus 209p ATCC 6538P assessed as bacterial growth inhibition incubated for 1 to 2 days by serial dilution method; conditions: time 1-2 day
Staphylococcus aureus [14] = experiment: Antibacterial activity against Staphylococcus aureus clinical isolate AD3 assessed as bacterial growth inhibition incubated for 24 hrs by CLSI based broth dilution method
Staphylococcus aureus [15] = experiment: Antibacterial activity against Staphylococcus aureus ATCC 29213 assessed as bacterial growth inhibition incubated for 24 hrs by CLSI based broth dilution method
Staphylococcus aureus [16] = experiment: Antibacterial activity against Staphylococcus aureus clinical isolate 144 assessed as bacterial growth inhibition incubated for 24 hrs by CLSI based broth dilution method
Staphylococcus aureus [17] = experiment: Antibacterial activity against Staphylococcus aureus clinical isolate AD3 assessed as bacterial growth inhibition incubated for 24 hrs by broth microdilution method
Staphylococcus aureus [18] = experiment: Antibacterial activity against Staphylococcus aureus ATCC 43300 assessed as bacterial growth inhibition incubated for 24 hrs by broth microdilution method
Staphylococcus aureus [19] = experiment: Antibacterial activity against Staphylococcus aureus clinical isolate 144 assessed as bacterial growth inhibition incubated for 24 hrs by broth microdilution method
Staphylococcus aureus [20] = experiment: Antibacterial activity against Staphylococcus aureus ATCC 43300 assessed as bacterial growth inhibition incubated for 24 hrs by CLSI based broth dilution method
Staphylococcus aureus [21] = experiment: Antibacterial activity against Staphylococcus aureus ATCC 29213 assessed as bacterial growth inhibition incubated for 24 hrs by broth microdilution method
Escherichia coli [22] = experiment: Antibacterial activity against Escherichia coli clinical isolate assessed as bacterial growth inhibition by disk diffusion method
Staphylococcus aureus [23] = experiment: Antibacterial activity against Staphylococcus aureus clinical isolate assessed as bacterial growth inhibition by disk diffusion method
Klebsiella pneumoniae [24] = experiment: Antibacterial activity against Klebsiella pneumoniae clinical isolate assessed as bacterial growth inhibition by disk diffusion method
Serratia marcescens = experiment: Antibacterial activity against Serratia marcescens clinical isolate assessed as bacterial growth inhibition by disk diffusion method
Pseudomonas putida = experiment: Antibacterial activity against Pseudomonas putida clinical isolate assessed as bacterial growth inhibition by disk diffusion method
Staphylococcus aureus [25] = experiment: Antibacterial activity against Staphylococcus aureus assessed as bacterial growth inhibition
Pseudomonas aeruginosa [26] = experiment: Antibacterial activity against Pseudomonas aeruginosa assessed as bacterial growth inhibition by broth microdilution method
Bacillus subtilis = experiment: Antibacterial activity against Bacillus subtilis assessed as bacterial growth inhibition by broth microdilution method

O=C(N/N=C/c1cn(-c2ccccc2)nc1-c1ccc(Cl)cc1)c1cccc(-n2cc(-c3ccccc3)nn2)c1
MIC (Escherichia coli [1]): 4 µg/mL (≈ 7.35 µM)
MIC (Staphylococcus aureus [2]): 4 µg/mL (≈ 7.35 µM)
MIC (Pseudomonas aeruginosa [3]): 4 µg/mL (≈ 7.35 µM)

CCCCc1ccc(-c2cn(CC(=O)NNC(=O)O[C@H]3C[C@H](C)[C@@H](O[C@@H]4[C@H](C)[C@@H](O[C@H]5O[C@@H](C)C[C@@H](N(C)C)[C@@H]5O)[C@@](C)(O)C[C@@H](C)CN(C)[C@H](C)[C@H]5OC(=O)O[C@]5(C)[C@H](CC)OC(=O)[C@@H]4C)C[C@@]3(C)OC)nn2)cc1
Ratio (Staphylococcus aureus [4]): >32
MIC (Staphylococcus aureus [5]): 2 µg/mL (≈ 1.87 µM)
MIC (Klebsiella pneumoniae [6]): ≥ 128 µg/mL
MIC (Staphylococcus aureus [7]): 2 µg/mL (≈ 1.87 µM)
Ratio (Staphylococcus aureus [8]): >32
MIC (Staphylococcus aureus [9]): ≥ 128 µg/mL
MIC (Staphylococcus aureus [10]): 2 µg/mL (≈ 1.87 µM)

Cc1ccccc1-n1cc(Cn2c3ccccc3c(=O)c3ccccc32)nn1
MIC (Escherichia coli [11]): 10.1 µg/mL (≈ 27.6 µM)
MIC (Staphylococcus aureus [12]): 10.1 µg/mL (≈ 27.6 µM)

CO/N=C(\C(=O)N[C@@H]1C(=O)N2C(C(=O)O)=C(CSc3nc(=O)c(O)nn3C)CS[C@H]12)c1csc(N)n1 [CEFTRIAXONE]
MIC (Staphylococcus aureus [13]): 0.97 µg/mL (≈ 1.75 µM)

COC(=O)c1cc2ccc(=O)oc2cc1-c1cn(-c2ccc(C(=O)O)cc2)nn1
MIC (Staphylococcus aureus [13]): 0.31 µg/mL (≈ 0.792 µM)

C=C[C@]1(C)C[C@@H](OC(=O)CO)C2(C)[C@H](C)CCC3(CCC(=O)[C@H]32)[C@@H](C)[C@@H]1O (some centres undefined)
MIC (Staphylococcus aureus [14]): 2 µg/mL (≈ 5.28 µM)
MIC (Staphylococcus aureus [15]): 2 µg/mL (≈ 5.28 µM)
MIC (Staphylococcus aureus [16]): 2 µg/mL (≈ 5.28 µM)
MIC (Staphylococcus aureus [17]): 2 µg/mL (≈ 5.28 µM)
MIC (Staphylococcus aureus [18]): 2 µg/mL (≈ 5.28 µM)
MIC (Staphylococcus aureus [19]): 2 µg/mL (≈ 5.28 µM)
MIC (Staphylococcus aureus [20]): 2 µg/mL (≈ 5.28 µM)
MIC (Staphylococcus aureus [21]): 2 µg/mL (≈ 5.28 µM)

C=C[C@]1(C)C[C@@H](OC(=O)Cn2cc(CN3CCN(c4ccccc4C)CC3)nn2)[C@@]2(C)[C@@H]3C(=O)CC[C@@]3(CC[C@@H]2C)[C@@H](C)[C@@H]1O
MIC (Staphylococcus aureus [17]): 0.5 µg/mL (≈ 0.809 µM)
MIC (Staphylococcus aureus [18]): 0.5 µg/mL (≈ 0.809 µM)
MIC (Staphylococcus aureus [19]): 0.5 µg/mL (≈ 0.809 µM)
MIC (Staphylococcus aureus [21]): 0.5 µg/mL (≈ 0.809 µM)

O=C(N/N=C/c1cn(-c2ccccc2)nc1-c1ccccc1)c1cccc(-n2cc(-c3ccccc3)nn2)c1
MIC (Escherichia coli [1]): 4 µg/mL (≈ 7.85 µM)
MIC (Staphylococcus aureus [2]): 4 µg/mL (≈ 7.85 µM)
MIC (Pseudomonas aeruginosa [3]): 4 µg/mL (≈ 7.85 µM)

Cc1ccc2c(c1)c(=O)c1ccccc1n2Cc1cn(-c2ccccc2C)nn1
MIC (Escherichia coli [11]): 10.1 µg/mL (≈ 26.5 µM)
MIC (Staphylococcus aureus [12]): 10.1 µg/mL (≈ 26.5 µM)

CCCCCc1ccc(-c2cn(CC(=O)NNC(=O)O[C@H]3C[C@H](C)[C@@H](O[C@@H]4[C@H](C)[C@@H](O[C@H]5O[C@@H](C)C[C@@H](N(C)C)[C@@H]5O)[C@@](C)(O)C[C@@H](C)CN(C)[C@H](C)[C@H]5OC(=O)O[C@]5(C)[C@H](CC)OC(=O)[C@@H]4C)C[C@@]3(C)OC)nn2)cc1
Ratio (Staphylococcus aureus [4]): >32
MIC (Staphylococcus aureus [5]): 2 µg/mL (≈ 1.84 µM)
MIC (Klebsiella pneumoniae [6]): ≥ 128 µg/mL
MIC (Staphylococcus aureus [7]): 2 µg/mL (≈ 1.84 µM)
Ratio (Staphylococcus aureus [8]): >32
MIC (Staphylococcus aureus [9]): ≥ 128 µg/mL
MIC (Staphylococcus aureus [10]): 2 µg/mL (≈ 1.84 µM)

Cc1ccc2c(c1)c(=O)c1ccccc1n2Cc1cn(CC(=O)Nc2ccccc2C)nn1
MIC (Escherichia coli [22]): 12.3 µg/mL (≈ 28.1 µM)
MIC (Staphylococcus aureus [23]): 12.3 µg/mL (≈ 28.1 µM)
MIC (Klebsiella pneumoniae [24]): 12.3 µg/mL (≈ 28.1 µM)
MIC (Serratia marcescens): 12.3 µg/mL (≈ 28.1 µM)
MIC (Pseudomonas putida): 12.3 µg/mL (≈ 28.1 µM)

CC[C@H]1OC(=O)[C@H](C)[C@@H](O[C@H]2C[C@@](C)(OC)[C@@H](O)[C@H](C)O2)[C@H](C)[C@@H](O[C@@H]2O[C@H](C)C[C@H](N(C)C)[C@H]2O)[C@](C)(OC)C[C@@H](C)C(=O)[C@H](C)[C@@H](O)[C@]1(C)O [CLARITHROMYCIN]
MIC (Staphylococcus aureus [5]): > 128 µg/mL
MIC (Staphylococcus aureus [7]): > 128 µg/mL
MIC (Staphylococcus aureus [10]): > 128 µg/mL

COc1cc2c(cc1OC)C[N+](Cc1cn(-c3ccc(C(C)(C)C)cc3)nn1)(Cc1cn(-c3ccc(C(C)(C)C)cc3)nn1)CC2.[Br-]
MIC (Staphylococcus aureus [25]): 4 µg/mL

C=CCCCCC1CC(=O)N1Cc1cn(-c2cccc([N+](=O)[O-])c2)nn1 (centres undefined)
MIC (Pseudomonas aeruginosa [26]): 1.25 µg/mL (≈ 3.52 µM)
MIC (Bacillus subtilis): 1.25 µg/mL (≈ 3.52 µM)

Source: ChEMBL document CHEMBL5344406, “1,2,3-Triazole-containing hybrids with potential antibacterial activity against ESKAPE pathogens” (2022)
